# Target: α1-adrenergic receptor
# Assay: Test of the bond to the α1-adrenergic receptor (inhibition of [3H]prazosin bond to rat cerebral cortex)
# Type: binding, rat (male Sprague Dawley)
# Conditions: [3H]prazosin 0.2 nM, rat cerebral cortex membranes, 30 min, 25° C., pH 7.7
# Experimental: The cerebral cortices of male Sprague Dawley rats are homogenized at 4° C. in Tris-HCl 50 mM pH=7.7 and centrifuged at 50,000 g for 30 minutes at 4° C. The pellets are again suspended in the same buffer and centrifuged again at 50,000 g for 30 minutes at 4° C.
# The filters are rinsed three times with the same buffer at 0-4° C. and their radioactivity is tested by liquid scintillation spectrometry.
# The specific bonds are obtained by subtracting the non-specific bonds (determined in the presence of 10 μM of phentolamine (Sigma Chemical Co. St. Louis Mo.)) from the total bonds. The data relative to the bonds is analyzed by computer assisted iterative non-linear regression analysis, using the Ligand program (Munson, P. J., Rodbard, D. Anal. Biochem. 107:220 (1980)).
row,SMILES,Ki [nM]
1,"Cc1cccc(C)c1N1CCN(CCCNC(=O)C(O)(c2ccccc2)c2ccccc2)CC1 [Compound 6, N-[3-{4-(2,6-dimethylphenyl)-1-piperazinyl}-propyl]-a-hydroxy-a-phenyl-benzeneacetamide]",480
2,"Cc1ccc(C)c(N2CCN(CCCNC(=O)C(C)(O)c3cccc(-c4ccccc4)c3)CC2)c1 (racemic) [Compound 44, (±)-N-[3-{4-(2,5-dimethylphenyl)-1-piperazinyl}-propyl]-α-hydroxy-α-methyl-1,1'-biphenyl-3-acetamide]",73
3,"Cc1cccc(N2CCN(CCCNC(=O)C(O)(c3ccccc3)c3ccccc3)CC2)c1C [Compound 4, N-[3-{4-(2,3-dimethylphenyl)-1-piperazinyl}-propyl]-α-hydroxy-α-phenyl-benzeneacetamide]",66
4,"COc1ccc(CC(C)(O)C(=O)NCCCN2CCN(c3cc(C)ccc3C)CC2)cc1 (racemic) [Compound 34, (±)-N-[3-{4-(2,5-dimethylphenyl)-1-piperazinyl}-propyl]-2-hydroxy-2-methyl-4-methoxy-benzenepropionamide]",45
5,"Cc1cccc(N2CCN(CCCNC(=O)C(O)(c3ccccc3)c3ccccc3)CC2)c1 [Compound 1, α-hydroxy-N-[3-{4-(3-methylphenyl)-1-piperazinyl}-propyl]-α-phenylbenzeneacetamide]",51
6,"CCCCC(O)(C(=O)NCCCN1CCN(c2cc(C)ccc2C)CC1)c1ccccc1 (racemic) [Compound 28, (±)-N-[3-{4-(2,5-dimethylphenyl)-1-piperazinyl}-propyl]-2-hydroxy-2-phenyl-hexanamide]",36
7,"Cc1ccc(C)c(N2CCN(CCCNC(=O)C(NS(C)(=O)=O)c3ccccc3)CC2)c1 (racemic) [Compound 33, (±)-N-[3-{4-(2,5-dimethylphenyl)-1-piperazinyl}-propyl]-α-(methylsulphonylamino)-benzeneacetamide]",40
8,"Cc1ccc(C)c(N2CCN(CCCNC(=O)C(C)(c3ccccc3)c3ccccc3)CC2)c1 [Compound 23, N-[3-{4-(2,5-dimethylphenyl)-1-piperazinyl}-propyl]-α-methyl-α-phenyl-benzeneacetamide]",98
9,"Cc1ccc(C)c(N2CCN(CCCNC(=O)C(C)(O)c3ccc(Cl)cc3)CC2)c1 (racemic) [Compound 30, (±)-4-chloro-N-[3-{4-(2,5-dimethylphenyl)-1-piperazinyl}-propyl]-α-hydroxy-α-methyl-benzeneacetamide]",44
10,"Cc1ccc(N2CCN(CCCNC(=O)C(O)(c3ccccc3)c3ccccc3)CC2)c(C)c1 [Compound 5, N-[3-{4-(2,4-dimethylphenyl)-1-piperazinyl}-propyl]-α-hydroxy-α-phenyl-benzeneacetamide]",60
11,"Cc1ccc(C(C)(O)C(=O)NCCCN2CCN(c3cc(C)ccc3C)CC2)cc1 (racemic) [Compound 41, (±)-N-[3-{4-(2,5-dimethylphenyl)-1-piperazinyl}-propyl]-α-hydroxy-α-methyl-4-methyl-benzeneacetamide]",27
12,"CCC(CC)(C(=O)NCCCN1CCN(c2cc(C)ccc2C)CC1)c1ccccc1 [Compound 26, N-[3-{4-(2,5dimethylphenyl)-1-piperazinyl}-propyl]-2-ethyl-2-phenyl-butyramide]",74
13,"Cc1ccc(N2CCN(CCCNC(=O)C(O)(c3ccccc3)c3ccccc3)CC2)cc1 [Compound 3, α-hydroxy-N-[3-{4-(4-methylphenyl)-1-piperazinyl}-propyl]-α-phenyl-benzeneacetamide]",60
14,"Cc1ccc(C)c(N2CCN(CCCNC(=O)C(C)(OCc3ccccc3)c3ccccc3)CC2)c1 (racemic) [Compound 52, (±)-N-[3-{4-(2,5-dimethylphenyl)-1-piperazinyl}-propyl]-α-benzyloxy-α-methyl-benzeneacetamide]",51
15,"Cc1ccc(C)c(N2CCN(CCCNC(=O)C(C)(O)c3ccc4ccccc4c3)CC2)c1 (racemic) [Compound 43, (±)-N-[3-{4-(2,5-dimethylphenyl)-1-piperazinyl}-propyl]-α-hydroxy-α-methyl-2-naphthaleneacetamide]",29
16,"O=C(NCCCN1CCN(c2ccccc2C(O)C2CC2)CC1)C(c1ccccc1)c1ccccc1 (racemic) [Compound 55, (±)-N-[3-{4-(2-(cyclopropylhydroxymethyl)-phenyl)-1-piperazinyl}-propyl]-α-phenyl-benzeneacetamide]",300
17,"CCC(O)c1ccccc1N1CCN(CCCNC(=O)C(c2ccccc2)c2ccccc2)CC1 (racemic) [Compound 36, (±)-N-[3-{4-(2-(1-hydroxypropyl)-phenyl)-1-piperazinyl}-propyl]-α-phenyl-benzeneacetamide]",170
18,"COc1ccccc1N1CCN(CCCNC(=O)C(c2ccccc2)C2CCCCC2)CC1 (racemic) [Compound 18, (±)-α-cyclohexyl-N-[3-{4-(2-methoxyphenyl)-1-piperazinyl}-propyl]-benzeneacetamide]",55
19,"CCCc1ccccc1N1CCN(CCCNC(=O)C(O)(c2ccccc2)c2ccccc2)CC1 (racemic) [Compound 56, (±)-N-[3-{4-(2-(propyl)-phenyl)-1-piperazinyl}-propyl]-α-hydroxy-α-phenyl-benzeneacetamide]",25
20,"Cc1ccc(C)c(N2CCN(CCCNC(=O)C(C)(C)O)CC2)c1 (racemic) [Compound 54, (±)-N-[3-{4-(2,5-dimethylphenyl)-1-piperazinyl}-propyl]-2-hydroxy-2-methyl-propionamide]",280

# More lines, now with the values ahead:
row,Ki [nM],SMILES
1,110,"COC(C)(C(=O)NCCCN1CCN(c2cc(C)ccc2C)CC1)c1ccccc1 (racemic) [Compound 51, (±)-N-[3-{4-(2,5-dimethylphenyl)-1-piperazinyl}-propyl]-α-methoxy-α-methyl-benzeneacetamide]"
2,38,"COc1ccc(C(C)(O)C(=O)NCCCN2CCN(c3cc(C)ccc3C)CC2)cc1 (racemic) [Compound 40, (±)-N-[3-{4-(2,5-dimethylphenyl)-1-piperazinyl}-propyl]-α-hydroxy-α-methyl-4-methoxy-benzeneacetamide]"
3,69,"CCSC(C(=O)NCCCN1CCN(c2cc(C)ccc2C)CC1)(c1ccccc1)c1ccccc1 [Compound 24, N-[3-{4-(2,5dimethylphenyl)-1-piperazinyl}-propyl]-α-ethylthio-α-phenyl-benzeneacetamide]"
4,90,"Cc1ccc(C)c(N2CCN(CCCN(C)C(=O)C(c3ccccc3)c3ccccc3)CC2)c1 [Compound 35, N-[3-{4-(2,5-dimethylphenyl)-1piperazinyl}-propyl]-N-methyl-α-phenyl-benzeneacetamide]"
5,67,"Cc1ccc(C)c(N2CCN(CCCNC(=O)C(C)(O)c3ccccc3Cl)CC2)c1 (racemic) [Compound 29, (±)-2-chloro-N-[3-{4-(2,5-dimethylphenyl)-1-piperazinyl}-propyl]-α-hydroxy-α-methyl-benzeneacetamide]"
6,60,"COc1ccccc1N1CCN(CCCNC(=O)C(O)c2ccccc2)CC1 (racemic) [Compound 19, (±)-α-hydroxy-N-[3-{4-(2-methoxyphenyl)-1-piperazinyl}-propyl]-benzeneacetamide]"
7,43,"Cc1ccc(C)c(N2CCN(CCCNC(=O)C(C)(O)c3cccc(Cl)c3)CC2)c1 (racemic) [Compound 31, (±)-3-chloro-N-[3-{4-(2,5-dimethylphenyl)-1-piperazinyl}-propyl]-α-hydroxy-α-methyl-benzeneacetamide]"
8,50,"Cc1ccc(C)c(N2CCN(CCCNC(=O)C(NC(=O)Cc3ccccc3)c3ccccc3)CC2)c1 (racemic) [Compound 49, (±)-N-[3-{4-(2,5-dimethylphenyl)-1-piperazinyl}-propyl]-α-benzylcarbonylamino-benzeneacetamide]"
9,64,"Cc1ccc(C)c(N2CCN(CCCNC(=O)C(c3ccc(Cl)cc3)c3ccc(Cl)cc3)CC2)c1 [Compound 21, 4-chloro-a-(4-chlorophenyl)-N-[3-{4-(2,5-dimethylphenyl)-1-piperazinyl}-propyl]-benzeneacetamide]"
10,51,"Cc1ccc(C)c(N2CCN(CCCNC(=O)C(N)c3ccccc3)CC2)c1 (racemic) [Compound 32, (±)-a-amino-N-[3-{4-(2,5-dimethylphenyl)-1-piperazinyl}-propyl]-benzeneacetamide]"

# Reference: patent US6300499A, “α1-adrenergic receptor antagonists” (Societe de Conseils de Recherches et d'Applications …, priority 1998, dated 2001)
